Source: patent US20240400579A1, “SPIROCYCLIC MODULATORS OF CHOLESTEROL BIOSYNTHESIS AND THEIR USE FOR PROMOTING REMYELINATION” (GENENTECH, INC., priority 2021, published 2024)
Like-named read-outs stand apart in the source and are kept apart here.

Experiments:
[1] = test system: zymostenol accumulation in EpiSC-derived OPCs (EBP); assay: GC/MS-based sterol profiling, zymostenol accumulation; type: cell-based, mouse; conditions: 8 doses from 0.15 nM to 333 nM, read-out: mZymo GCMS EC50
Experimental: (§1) To assess effects of treatments on OPCs, all treatments were assayed in two or more independent platings of epiblast stem cell-derived OPCs (EpiSC). EpiSC-derived OPCs were obtained using in vitro differentiation protocols and culture conditions described previously (Najm et al, 2011, Nature Methods). OPCs were expanded and frozen down in aliquots. OPCs were thawed into growth conditions for at least one passage before use in further assays.
Sterols were monitored using a modified Folch wash protocol (Hubler et al, 2018, Nature). EpiSC-derived OPCs were plated at 100,000 cells per well in PO— and laminin-coated 96-well plates in N2B27 media without growth factors. After 24 hours, cells were rinsed with saline and plates were frozen. Cholesterol-d7 standard was then added to each well before drying under nitrogen stream and derivatization with 55 μl of bis(trimethylsilyl) trifluoroacetamide. After derivatization, 2 μl were analyzed by gas chromatography/mass spectrometry using an Agilent 5973 Network Mass Selective Detector equipped with a 6890 gas chromatograph system and a HP-5MS capillary column (30 m x 0.25 mm×[…]). Samples were analyzed in full scan mode using electron impact ionization; ion fragment peaks were integrated to calculate sterol abundance, and quantitation was relative to cholesterol-d7. The following ion fragments were used to quantitate each metabolite: cholesterol-d7 (465), FF-Mas (482), cholesterol (368), zymostenol (458), zymosterol (456), Desmosterol (456, 343), 7-dehydrocholesterol (456, 325), lanosterol (393), lathosterol (458), 14-dehydrozymostenol (456, 351). […] All standards were obtained from Avanti Polar Lipids unless otherwise indicated. Calibration curves were generated by injecting varying concentrations of sterol standards and maintaining a fixed amount of cholesterol-D7. For normalized zymostenol accumulation results, the total amount of zymostenol measured after drug treatment was divided by the total amount of zymostenol accumulated after 24 hr treatment with 100 nM positive control reference.

[2] = biological target: human emopamil binding protein and human 7-dehydrocholesterol reductase co-expressing cell membrane (Homo sapiens (Human), UniProt Q15125); assay: hEBP-DHCR7 radioligand filtration binding assay with [3H]-Compound 118A*; conditions: radioligand [3H]-Compound 118A*; HEK293 membrane co-expressing hEBP and DHCR7
human emopamil binding protein and human 7-dehydrocholesterol reductase co-expressing cell membrane, sequence (Q15125 whole entry): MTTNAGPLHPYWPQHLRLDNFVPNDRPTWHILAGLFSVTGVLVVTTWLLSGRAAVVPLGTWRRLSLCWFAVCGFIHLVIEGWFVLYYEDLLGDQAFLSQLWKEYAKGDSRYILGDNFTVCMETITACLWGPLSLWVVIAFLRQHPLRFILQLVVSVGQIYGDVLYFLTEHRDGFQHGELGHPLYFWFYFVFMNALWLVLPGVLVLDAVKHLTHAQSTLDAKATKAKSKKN
Experimental: Membrane Preparation: human emopamil binding protein and human 7-dehydrocholesterol reductase co-expressing cells were generated by transient transfecting host human embryonic kidney (HEK) 293 cells with 2 DNA constructs containing each protein's coding sequence. Cells were suspension cultured at 37° C. with 5% CO2 in […] 293 Expression Medium (Thermofisher). Whole cell membrane was prepared by harvesting the cell pellet, adding cold membrane buffer (50 mM Tris, pH7.5, 1× Roche COMPLETE EDTA-free protease inhibitor cocktail) 10 times volume of the cell pellets weight, lysing cell pellet on ice by using Dounce homogenizer, spinning at 200 g 4° C. for 15 min, collecting supernatant and spinning again at 25000 g 4° C. for 50 min, transferring pellet to Dounce homogenizer, re-suspending pellet by homogenizing in membrane buffer on ice to reach ˜25 mg/mL, then keeping whole cell membrane aliquots at −80° C.
Compounds were prepared in a 96-well U bottom plate using an Echo550 machine and 10 mM compound DMSO stock solution, followed by an 8-dose 5-fold serial dilutions protocol with final testing compound concentration ranging from 0.06 to 5000 nM, with DMSO back fill to 100 nL/well and n=2. […] The UniFilter-96 GF/B plates were pre-treated by adding 50 μl/well of 0.3% (v/v) PEI to UniFilter-96 GF/B plates. The plates were sealed and incubated at 4° C. for 3 hrs. Then, the plates were washed with ice-cold assay buffer 3 times. The radioligand binding assay was prepared by adding assay buffer diluted hEBP-DHCR7 membrane at 66.7 μg/ml x 150 μl/well into the 96-well compound plate to reach 10 μg membrane per well. Then, the assay buffer diluted [3H]-Compound 118A* was added at 25 nM×50 μl/well. Following this, the plate was centrifuged at 1000 rpm for 30 secs. The plate was then sealed and agitated at 600 rpm at 22° C. for 5 min, and then incubated at 22° C. for 3 hrs. The incubation was stopped by transferring the binding solution to the pre-treated UniFilter-96 GF/B plate, vacuum filtrated, and then washed four times with ice-cold assay buffer. Following this, the plates were dried at 37° C. for 45 min. The plates were then sealed at the bottom. 40 μl/well of scintillation cocktail was added to the plates. A MicroBeta2 microplate counter was then used to read the plate and analyze the data. For reference and test compounds, the results are expressed as % Inhibition, using the normalization equation: N=100-100×(U−C2)/(C1−C2), where U is the unknown value, C1 is the average of high controls, and C2 is the average value of low controls. The IC50 was determined by fitting percentage of inhibition as a function of compound concentrations with Hill equation using XLfit. Results are expressed as hEBP-DHCR7 Ki (uM) in Table 4. Ki was calculated as described above.

EpiSC-derived OPCs = assay: In vitro phenotypic screening of OPCs, MBP high-content imaging; type: cell-based, mouse; conditions: percentage of MBP+ oligodendrocytes, 3 days, 0.5 nM to 1000 nM, read-out: mOPC EC50
Experimental: as §1
EpiSC-derived OPCs were grown and expanded in poly-L-ornithine (PO) and laminin-coated flasks in N2B27 media (DMEM/F12 (Gibco), N2-MAX (R&D Systems), B-27 (ThermoFisher), and GlutaMax (Gibco)) supplemented with FGF2 ([…], R&D systems, 233-FB-025) and PDGF-AA ([…], R&D systems, 233-AA-050) before harvesting for experiments. The cells were seeded onto poly-L-ornithine or poly-D-lysine coated CellCarrier Ultra plates (PerkinElmer) coated with laminin (Sigma, L2020) at a density of 150,000/cm^2 in N2B27 media without growth factors. For dose-response testing, a 1000× compound stock in dimethyl sulphoxide (DMSO) was added to assay plates, resulting in 8-point dose curves with final concentrations between 1000 nM and 0.5 nM. Positive controls and DMSO vehicle controls were included in each assay plate. Cells were incubated under standard conditions (37° C., 5% CO2) for 3 days and fixed with 4% paraformaldehyde (PFA) in phosphate buffered saline (PBS) for 20 min. Fixed plates were washed with PBS, permeabilized with 0.1% Triton X-100, and blocked with 10% donkey serum (v/v) in PBS for 40 min. Then, cells were labelled with MBP antibodies (Abcam, ab7349; 1:200) for 2 h at room temperature, washed with PBS, and stained with Alexa Fluor conjugated secondary antibodies (1:500) for 45 min. Nuclei were visualized by DAPI staining (Sigma; 1 μg/ml), followed by further PBS washes.
Cells and cell culture plates were imaged on the Operetta High Content Imaging and Analysis system (PerkinElmer). Analysis (PerkinElmer Harmony and Columbus software) began by identifying intact nuclei stained by DAPI. The peri-nuclear region of each cell was then cross-referenced with the mature myelin protein (MBP) stain to identify oligodendrocyte nuclei, and from this the percentage of oligodendrocytes was calculated. EC50 values were calculated using The Levenberg-Marquardt algorithm to fit a Hill equation to dose-response data (0.5 nM to 1000 nM).

Row | Structure (SMILES) | EC50 ([1]; 24 hours) [nM] | Ki [2] [nM] | EC50 (EpiSC-derived OPCs) [nM] | EC50 ([1]; Mus musculus, 24 h) [nM] | EC50 (EpiSC-derived OPCs; Mus musculus, 72 h) [nM]
1 | CC(Cc1ccc(F)c(F)c1)CN1CCC2(CC1)CS(=O)(=O)C2 (single isomer, unassigned) [212B*, 7-(3-(3,4-Difluorophenyl)-2-methylpropyl)-2-thia-7-azaspiro[3.5]nonane 2,2-dioxide] | 2.1 | 10.1 | 4 |  | 
2 | C[C@@H](Cc1ccc(C(F)(F)F)cc1)CN1CCC2(CC1)CS(=O)(=O)C2 (single isomer, unassigned) [216A*] |  | 9.98 |  | 0.95 | 1.4
3 | C[C@H](Cc1ccc(C(F)(F)F)cc1)CN1CCC2(CC1)CS(=O)(=O)C2 (single isomer, unassigned) [216B*] |  | 15.6 |  | 0.99 | 3.3
4 | C[C@H](CN1CCC2(CC1)CS(=O)(=O)C2)Oc1ccc(F)c(F)c1 (single isomer, unassigned) [221B*] | 4.6 | 10.6 | 13 |  | 
5 | C[C@@H](CN1CCC2(CC1)CS(=O)(=O)C2)Oc1ccc(C(F)(F)F)cc1 (single isomer, unassigned) [227A*] |  | 15.3 |  | 3.2 | 7.6
6 | C[C@H](CN1CCC2(CC1)CS(=O)(=O)C2)Oc1ccc(C(F)(F)F)cc1 (single isomer, unassigned) [227B*] |  | 9.8 |  | 2.1 | 2.4
7 | C[C@H](Cc1ccc(C(F)(F)F)cc1)CN1CC2(CCS(=O)(=O)CC2)C1 (single isomer, unassigned) [232A*] |  | 13.9 |  | 2 | 5.6
8 | C[C@@H](Cc1ccc(C(F)(F)F)cc1)CN1CC2(CCS(=O)(=O)CC2)C1 (single isomer, unassigned) [232B*] |  | 12.7 |  | 5.7 | 15
9 | C[C@@H](Cc1ccc(C(F)(F)F)nc1)CN1CC2(CCS(=O)(=O)CC2)C1 (single isomer, unassigned) [234B*] |  | 193 |  | 35 | 210
10 | CC(C)n1nc(C(F)(F)F)cc1C[C@@H](C)CN1CCC2(C1)CS(=O)(=O)C2 (single isomer, unassigned) [235A*] |  | 19.7 |  | 6.1 | 19.9
11 | CC(C)n1nc(C(F)(F)F)cc1C[C@H](C)CN1CCC2(C1)CS(=O)(=O)C2 (single isomer, unassigned) [235B*] |  | 17.1 |  | 2.6 | 3.89
12 | O=S1(=O)CC2(CCN(CC[C@H](F)c3ccc(C(F)(F)F)nc3)CC2)C1 (single isomer, unassigned) [237A*] |  | 89.6 |  | 30.1 | 26.9
13 | O=S1(=O)CC2(CCN(CC[C@@H](F)c3ccc(C(F)(F)F)nc3)CC2)C1 (single isomer, unassigned) [237B*] |  | 117 |  | 17 | 69.1
14 | O=S1(=O)CC2(CCN(CC[C@@H](F)c3ccc(C(F)(F)F)cc3)C2)C1 (single isomer, unassigned) [Compound 122A] |  | 15.6 |  | 1.5 | 10
15 | CC(C)(Cc1ccc(C(F)(F)F)nc1)CN1CC[C@]2(CCS(=O)(=O)C2)C1 (single isomer, unassigned) [Compound 148A] |  | 23.6 |  | 4.9 | 31
16 | C[C@H](Cc1ccc(C(F)(F)F)nc1)CN1CCC2(CC1)CS(=O)(=O)C2 (single isomer, unassigned) [Compound 217] |  | 39.6 |  | 8.3 | 26
17 | C[C@@H](Cc1ccc(C(F)(F)F)nc1)CN1CCC2(CC1)CS(=O)(=O)C2 (single isomer, unassigned) [Example 203*] |  | 51.9 |  | 6.4 | 22
18 | C[C@H](CN1CCC2(CC1)CS(=O)(=O)C2)Oc1ccc(C(F)(F)F)nc1 (single isomer, unassigned) [Example 207B*] |  | 65.3 |  | 9.8 | 63
19 | C[C@@H](Cc1ccc([C@H]2CC[C@](O)(C(F)(F)F)CC2)c(Cl)c1)CN1CCC2(C1)CS(=O)(=O)C2 (stereo in doubt) [116A*, 6-((S)-3-(3-Chloro-4-((1s,4R)-4-hydroxy-4-(trifluoromethyl)cyclohexyl)phenyl)-2-methylpropyl)-2-thia-6-azaspiro[3.4]octane 2,2-dioxide, 6-((R)-3-(3-chloro-4-((1s,4S)-4-hydroxy-4-(trifluoromethyl)cyclohexyl)phenyl)-2-methylpropyl)-2-thia-6-azaspiro[3.4]octane 2,2-dioxide] | 0.49 | 10.5 | 1.6 |  | 
20 | C[C@H](Cc1ccc([C@H]2CC[C@](O)(C(F)(F)F)CC2)c(Cl)c1)CN1CCC2(C1)CS(=O)(=O)C2 (stereo in doubt) [116B*, 6-((S)-3-(3-Chloro-4-((1s,4S)-4-hydroxy-4-(trifluoromethyl)cyclohexyl)phenyl)-2-methylpropyl)-2-thia-6-azaspiro[3.4]octane 2,2-dioxide, and 6-((R)-3-(3-chloro-4-((1r,4R)-4-hydroxy-4-(trifluoromethyl)cyclohexyl)phenyl)-2-methylpropyl)-2-thia-6-azaspiro[3.4]octane 2,2-dioxide] | 0.81 | 9.31 | 2 |  | 
